# Measurements from patent US20180148418A1, “AMIDO-SUBSTITUTED CYCLOHEXANE DERIVATIVES” (Bayer Pharma Aktiengesellschaft, priority 2015, published 2018).
# Target: T1, TNKS1 (Homo sapiens, UniProt O95271)
# T1 construct: purchased BPS Bioscience, San Diego, USA 80579 (TNKS1 Histone Ribosylation Assay Kit)
# T1 sequence (O95271 1-1327): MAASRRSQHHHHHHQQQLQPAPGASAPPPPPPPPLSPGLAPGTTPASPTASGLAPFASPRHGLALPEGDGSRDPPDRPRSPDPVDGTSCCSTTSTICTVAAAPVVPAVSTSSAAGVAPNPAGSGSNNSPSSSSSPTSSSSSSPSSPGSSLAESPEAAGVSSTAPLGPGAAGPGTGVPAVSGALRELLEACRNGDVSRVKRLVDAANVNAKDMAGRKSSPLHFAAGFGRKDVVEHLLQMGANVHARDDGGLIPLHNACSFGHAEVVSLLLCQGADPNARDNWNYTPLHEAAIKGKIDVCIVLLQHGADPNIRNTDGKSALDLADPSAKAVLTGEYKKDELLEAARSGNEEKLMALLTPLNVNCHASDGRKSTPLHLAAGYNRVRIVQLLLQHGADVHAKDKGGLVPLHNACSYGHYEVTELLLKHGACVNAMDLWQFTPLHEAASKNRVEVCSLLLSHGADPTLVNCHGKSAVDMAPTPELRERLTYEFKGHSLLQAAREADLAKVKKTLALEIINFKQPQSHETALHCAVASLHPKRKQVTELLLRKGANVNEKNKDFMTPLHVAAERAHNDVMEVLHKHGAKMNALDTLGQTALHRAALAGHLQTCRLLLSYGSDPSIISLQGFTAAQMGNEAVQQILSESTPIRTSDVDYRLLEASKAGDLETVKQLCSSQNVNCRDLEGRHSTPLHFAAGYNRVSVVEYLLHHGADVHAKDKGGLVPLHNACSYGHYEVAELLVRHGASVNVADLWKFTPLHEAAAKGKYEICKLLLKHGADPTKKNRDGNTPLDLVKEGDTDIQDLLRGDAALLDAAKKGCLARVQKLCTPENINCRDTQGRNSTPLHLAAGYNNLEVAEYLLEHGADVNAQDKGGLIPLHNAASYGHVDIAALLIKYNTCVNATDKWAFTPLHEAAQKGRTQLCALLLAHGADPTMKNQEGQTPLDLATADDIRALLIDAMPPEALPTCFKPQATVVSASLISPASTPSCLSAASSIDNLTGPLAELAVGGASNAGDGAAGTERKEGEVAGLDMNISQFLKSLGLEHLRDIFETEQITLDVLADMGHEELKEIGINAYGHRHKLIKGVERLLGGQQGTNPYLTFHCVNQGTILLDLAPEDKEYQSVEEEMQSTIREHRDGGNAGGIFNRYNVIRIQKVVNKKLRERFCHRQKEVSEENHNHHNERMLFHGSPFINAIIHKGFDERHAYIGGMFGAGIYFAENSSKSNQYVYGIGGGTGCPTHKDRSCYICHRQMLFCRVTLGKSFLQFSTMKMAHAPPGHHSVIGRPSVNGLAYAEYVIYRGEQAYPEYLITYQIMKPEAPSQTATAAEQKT
# Experiment: TNKS1 Assay B (auto-parsylation, [3H]-NAD+ SPA)
# Format: biochemical
# Conditions: 6 nM TNKS1, auto-parsylation, over night at room temperature
row,Structure (SMILES),IC50 [nM]
1,"O=C(N[C@H]1CC[C@@]2(CCN(c3ccc(F)cc3Cl)C2=O)CC1)c1cnn2c(C(F)(F)F)ccnc12 [Example 233, N-[(trans)-2-(2-chloro-4-fluorophenyl)-1-oxo-2-azaspiro[4.5]dec-8-yl]-7-(trifluoromethyl)pyrazolo[1,5-a]pyrimidine-3-carboxamide]",71
2,"O=C(N[C@H]1CC[C@@]2(CCN(c3ccccc3Cl)C2=O)CC1)c1cnn2cccnc12 [Example 256, N-[(trans)-2-(2-chlorophenyl)-1-oxo-2-azaspiro[4.5]dec-8-yl]pyrazolo[1,5-a]pyrimidine-3-carboxamide]",12
3,"Cc1cc(C)n2ncc(C(=O)N[C@H]3CC[C@@]4(CCN(c5ccccc5Cl)C4=O)CC3)c2n1 [Example 257, N-[(trans)-2-(2-chlorophenyl)-1-oxo-2-azaspiro[4.5]dec-8-yl]-5,7-dimethylpyrazolo[1,5-a]pyrimidine-3-carboxamide]",10
4,"CCNC(=O)c1nc[nH]c1C(=O)N[C@H]1CC[C@@]2(CCN(c3ccccc3Cl)C2=O)CC1 [Example 258, N^5-[(trans)-2-(2-chlorophenyl)-1-oxo-2-azaspiro[4.5]dec-8-yl]-N^4-ethyl-1H-imidazole-4,5-dicarboxamide]",13
5,"COCCNC(=O)c1nc[nH]c1C(=O)N[C@H]1CC[C@@]2(CCN(c3ccccc3Cl)C2=O)CC1 [Example 259, N^5-[(trans)-2-(2-chlorophenyl)-1-oxo-2-azaspiro[4.5]dec-8-yl]-N^4-(2-methoxyethyl)-1H-imidazole-4,5-dicarboxamide]",12
6,"CC1CCN(CCNC(=O)c2nc[nH]c2C(=O)N[C@H]2CC[C@@]3(CCN(c4ccccc4Cl)C3=O)CC2)CC1 [Example 260, N^5-[(trans)-2-(2-chlorophenyl)-1-oxo-2-azaspiro[4.5]dec-8-yl]-N^4-[2-(4-methylpiperidin-1-yl)ethyl]-1H-imidazole-4,5-dicarboxamide]",7.4
7,"CNC(=O)c1nc[nH]c1C(=O)N[C@H]1CC[C@@]2(CCN(c3ccccc3Cl)C2=O)CC1 [Example 264, N^5-[(trans)-2-(2-chlorophenyl)-1-oxo-2-azaspiro[4.5]dec-8-yl]-N^4-methyl-1H-imidazole-4,5-dicarboxamide]",20
8,"Cc1cc(N2CC[C@]3(CC[C@@H](NC(=O)c4cnc5cccnn45)CC3)C2=O)c(Cl)cc1F [Example 265, N-[(trans)-2-(2-chloro-4-fluoro-5-methylphenyl)-1-oxo-2-azaspiro[4.5]dec-8-yl]imidazo[1,2-b]pyridazine-3-carboxamide]",6.4
9,"Cc1cc(C)n2ncc(C(=O)N[C@H]3CC[C@@]4(CCN(c5cc(C)c(F)cc5Cl)C4=O)CC3)c2n1 [Example 266, N-[(trans)-2-(2-chloro-4-fluoro-5-methylphenyl)-1-oxo-2-azaspiro[4.5]dec-8-yl]-5,7-dimethylpyrazolo[1,5-a]pyrimidine-3-carboxamide]",20
10,"Cc1cc(N2CC[C@]3(CC[C@@H](NC(=O)c4cnn5cccnc45)CC3)C2=O)c(Cl)cc1F [Example 267, N-[(trans)-2-(2-chloro-4-fluoro-5-methylphenyl)-1-oxo-2-azaspiro[4.5]dec-8-yl]pyrazolo[1,5-a]pyrimidine-3-carboxamide]",9.9
11,"O=C(N[C@H]1CC[C@@]2(CCN(c3cccc(Cl)c3)C2=O)CC1)c1cnn2cccnc12 [Example 268, N-[(trans)-2-(3-chlorophenyl)-1-oxo-2-azaspiro[4.5]dec-8-yl]pyrazolo[1,5-a]pyrimidine-3-carboxamide]",540
12,"O=C(N[C@H]1CC[C@@]2(CCN(c3cccc(Cl)c3)C2=O)CC1)c1cnc2cccnn12 [Example 269, N-[(trans)-2-(3-chlorophenyl)-1-oxo-2-azaspiro[4.5]dec-8-yl]imidazo[1,2-b]pyridazine-3-carboxamide]",800
13,"Cc1cc(C)n2ncc(C(=O)N[C@H]3CC[C@@]4(CCN(c5cccc(Cl)c5)C4=O)CC3)c2n1 [Example 270, N-[(trans)-2-(3-chlorophenyl)-1-oxo-2-azaspiro[4.5]dec-8-yl]-5,7-dimethylpyrazolo[1,5-a]pyrimidine-3-carboxamide]",160
14,"O=C(N[C@H]1CC[C@@]2(CCN(c3ccccc3Cl)C2=O)CC1)c1cnc2cccnn12 [Example 271, N-[(trans)-2-(2-chlorophenyl)-1-oxo-2-azaspiro[4.5]dec-8-yl]imidazo[1,2-b]pyridazine-3-carboxamide]",15
15,"CNC(=O)c1nc[nH]c1C(=O)N[C@H]1CC[C@@]2(CCN(c3cccc(Cl)c3)C2=O)CC1 [Example 276, N^5-[(trans)-2-(3-chlorophenyl)-1-oxo-2-azaspiro[4.5]dec-8-yl]-N^4-methyl-1H-imidazole-4,5-dicarboxamide]",180
16,"CCNC(=O)c1nc[nH]c1C(=O)N[C@H]1CC[C@@]2(CCN(c3cccc(Cl)c3)C2=O)CC1 [Example 277, N^5-[(trans)-2-(3-chlorophenyl)-1-oxo-2-azaspiro[4.5]dec-8-yl]-N^4-ethyl-1H-imidazole-4,5-dicarboxamide]",260
17,"CC(C)NC(=O)c1nc[nH]c1C(=O)N[C@H]1CC[C@@]2(CCN(c3cccc(Cl)c3)C2=O)CC1 [Example 278, N^5-[(trans)-2-(3-chlorophenyl)-1-oxo-2-azaspiro[4.5]dec-8-yl]-N^4-(propan-2-yl)-1H-imidazole-4,5-dicarboxamide]",450
18,"O=C(NC1CC1)c1nc[nH]c1C(=O)N[C@H]1CC[C@@]2(CCN(c3cccc(Cl)c3)C2=O)CC1 [Example 279, N^5-[(trans)-2-(3-chlorophenyl)-1-oxo-2-azaspiro[4.5]dec-8-yl]-N^4-cyclopropyl-1H-imidazole-4,5-dicarboxamide]",290
19,"O=C(N[C@H]1CC[C@@]2(CCN(c3cccc(Cl)c3)C2=O)CC1)c1[nH]cnc1C(=O)N1CC(F)C1 [Example 280, N-[(trans)-2-(3-chlorophenyl)-1-oxo-2-azaspiro[4.5]dec-8-yl]-4-[(3-fluoroazetidin-1-yl)carbonyl]-1H-imidazole-5-carboxamide]",220
20,"O=C(NCC(F)(F)F)c1nc[nH]c1C(=O)N[C@H]1CC[C@@]2(CCN(c3cccc(Cl)c3)C2=O)CC1 [Example 281, N^5-[(trans)-2-(3-chlorophenyl)-1-oxo-2-azaspiro[4.5]dec-8-yl]-N^4-(2,2,2-trifluoroethyl)-1H-imidazole-4,5-dicarboxamide]",330
21,"COCCNC(=O)c1nc[nH]c1C(=O)N[C@H]1CC[C@@]2(CCN(c3cccc(Cl)c3)C2=O)CC1 [Example 282, N^5-[(trans)-2-(3-chlorophenyl)-1-oxo-2-azaspiro[4.5]dec-8-yl]-N^4-(2-methoxyethyl)-1H-imidazole-4,5-dicarboxamide]",310
